The text below walks through data of patent EP4737450A1 (Longwood Pharmaceuticals (Hangzhou) Co., Ltd, priority 2023, dated 2025).

As usually defined, the IC50 is the concentration needed to halve the response being measured.

Assay [1] deals with T1, plasma kallikrein (PKa) (Homo sapiens, UniProt P03952).
T1 construct: purchased R & D 2497-SE
Kind of assay: PKa inhibition in kaolin-activated human platelet-poor plasma (PPP). The format is biochemical. Particulars: Pro-Phe-Arg-AMC substrate, fluorescence signal. As for the experimental part: Test Example 2. Evaluation of the compounds of the present invention in terms of PKa Inhibition in Kaolin-Activated Human PPP: Platelet-poor plasma (PPP) obtained from human whole blood, anticoagulated with Na - Citrate, was incubated with various concentrations of the test compounds and 25, 75, 250, or 750 µg/mL kaolin in assay buffer for 20 minutes at 37°C, so that a concentration response of the test compounds was obtained with respect to various kaolin concentrations. The positive drug was diluted in accordance with the reference concentration and diluted 3-fold with the diluent as the first point.
50 nL of compounds were then transferred to a 384 assay plate containing 2 replicates per well. The 384 assay plate was centrifuged at 1000 rpm/min. 2.5 µL of human plasma working solution was added to each assay well. The 384 assay plate was centrifuged at 1000 RPM. 2.5 µL of kaolin working solution was added to each assay well. The 384 assay plate was centrifuged at 1000 RPM and incubated at 25°C for 20 minutes. 5 µL of Pro-Phe-Arg-AMC working solution was added to each assay well. The 384 assay plate was centrifuged at 1000 RPM and incubated at 25°C for 60 minutes. BMG reads the fluorescence signal.
The percent inhibition of the compound was calculated according to the following formula: [formula]

A further assay has as its target KLK1 (Homo sapiens, UniProt P06870). Briefly: Inhibitory activity against KLK1 in vitro (biochemical assay). Put shortly:
(§1)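 Compounds were dispensed acoustically from DMSO and tested in duplicate. IC50 values came from nonlinear regression curve fitting.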

The target in the next assay is FXIa (Homo sapiens, UniProt P03951). Briefly: Inhibitory activity against FXIa in vitro (biochemical assay). Put shortly:
as §1

Assay [2] has as its target T1, plasma kallikrein (PKa). Briefly: Inhibitory activity against plasma kallikrein in vitro (fluorescence intensity enzyme assay, Pro-Phe-Arg-AMC substrate). Type of assay: biochemical. Particulars: plasma kallikrein enzyme assay, Pro-Phe-Arg-AMC substrate; read-out: PKa IC50. Put shortly:
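Fluorescence intensity enzyme assay with 10 nM enzyme and 60 µM Pro-Phe-Arg-AMC (final concentrations). Compounds in DMSO, tested in duplicate over a dose series. IC50 from nonlinear regression curve fitting.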

SMILES strings stand for the structures.

Chain of KLK1 (P06870 25-262, species assumed): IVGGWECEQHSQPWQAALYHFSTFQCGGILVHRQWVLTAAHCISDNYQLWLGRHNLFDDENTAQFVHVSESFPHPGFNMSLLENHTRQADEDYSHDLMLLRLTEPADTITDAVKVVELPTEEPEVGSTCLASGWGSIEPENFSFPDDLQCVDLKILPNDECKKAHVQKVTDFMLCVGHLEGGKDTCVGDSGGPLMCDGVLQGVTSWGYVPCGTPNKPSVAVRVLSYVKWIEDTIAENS
T1 sequence (P03952 391-638 limits assumed): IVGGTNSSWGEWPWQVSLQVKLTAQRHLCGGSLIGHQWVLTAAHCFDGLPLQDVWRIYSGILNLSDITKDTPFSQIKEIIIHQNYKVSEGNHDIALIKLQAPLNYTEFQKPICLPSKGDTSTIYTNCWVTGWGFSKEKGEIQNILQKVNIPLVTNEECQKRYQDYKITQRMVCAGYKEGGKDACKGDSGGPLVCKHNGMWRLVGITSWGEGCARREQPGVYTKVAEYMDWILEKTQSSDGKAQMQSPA
T1 sequence (P03952 20-390 partner limits assumed): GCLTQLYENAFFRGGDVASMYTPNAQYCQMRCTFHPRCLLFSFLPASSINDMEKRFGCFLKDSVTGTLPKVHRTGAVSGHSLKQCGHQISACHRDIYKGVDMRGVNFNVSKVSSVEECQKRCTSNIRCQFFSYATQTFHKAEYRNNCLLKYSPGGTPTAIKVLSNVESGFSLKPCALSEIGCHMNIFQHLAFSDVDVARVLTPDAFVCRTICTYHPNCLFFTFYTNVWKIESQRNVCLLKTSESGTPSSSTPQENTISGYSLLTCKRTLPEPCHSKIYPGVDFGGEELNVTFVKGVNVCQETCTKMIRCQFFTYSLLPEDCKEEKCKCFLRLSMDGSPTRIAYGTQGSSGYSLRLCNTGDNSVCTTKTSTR
Chain of FXIa (P03951 388-625 limits assumed): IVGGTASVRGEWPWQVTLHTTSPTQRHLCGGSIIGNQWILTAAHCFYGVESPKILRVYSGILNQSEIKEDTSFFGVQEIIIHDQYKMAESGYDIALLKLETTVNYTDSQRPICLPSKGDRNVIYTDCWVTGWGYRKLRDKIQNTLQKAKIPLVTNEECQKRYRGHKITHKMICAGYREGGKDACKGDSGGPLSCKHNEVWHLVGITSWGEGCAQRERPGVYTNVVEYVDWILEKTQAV
Chain of FXIa (P03951 19-387 partner limits assumed): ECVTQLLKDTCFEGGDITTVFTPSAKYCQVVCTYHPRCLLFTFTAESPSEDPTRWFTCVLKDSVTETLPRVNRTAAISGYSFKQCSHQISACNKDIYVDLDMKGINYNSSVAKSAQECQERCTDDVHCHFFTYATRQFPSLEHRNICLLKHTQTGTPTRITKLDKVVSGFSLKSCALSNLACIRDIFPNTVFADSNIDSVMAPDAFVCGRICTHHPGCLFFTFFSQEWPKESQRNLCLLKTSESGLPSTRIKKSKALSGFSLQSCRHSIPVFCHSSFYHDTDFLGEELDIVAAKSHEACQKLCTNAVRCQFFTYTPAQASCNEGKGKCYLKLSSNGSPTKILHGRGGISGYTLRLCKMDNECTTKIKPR

Take `Cc1cc(N)nc(C)c1CNC(=O)c1cnc(Cc2cn3cc(C4CC4)ccc3n2)o1` [Compound 18]: the IC50 on plasma kallikrein (PKa) [1] is 7.92 nM; on KLK1 (values given in µM) it was above 10 µM; on FXIa (values given in µM), above 10 µM; on plasma kallikrein (PKa) [2] it was 0.408 nM.

Take `N=C(N)c1ccc(CNC(=O)c2coc(Cc3cn4cc(C5CC5)ccc4n3)n2)cc1` [Compound 37]: the 50% inhibitory concentration (IC50) is 6.7 nM at plasma kallikrein (PKa) [1], above 10 µM against KLK1 (values given in µM), above 10 µM at FXIa (values given in µM) and 0.16 nM at plasma kallikrein (PKa) [2].

Consider `Cc1cc(N)nc(C)c1CNC(=O)c1ncn(Cc2ccc(Cn3cc(F)ccc3=O)cc2)n1` [Compound 23], for which the IC50 against plasma kallikrein (PKa) [1] is 7.99 nM; against KLK1 (values given in µM), above 10 µM; against FXIa (values given in µM) it was above 10 µM; at plasma kallikrein (PKa) [2], below 0.05 nM.

For `COCc1nn(Cc2ccc(Cn3cccn3)cc2)cc1C(=O)NCc1c(C)cc(N)nc1C` [Compound 14, 1-(4-((1H-pyrazol-1-yl)methyl)benzyl)-N-((6-amino-2,4-dimethylpyridin-3-yl)methyl)-3-(methoxymethyl)-1H-pyrazol-4-carboxamide], the IC50 against plasma kallikrein (PKa) [1] is 7.51 nM; against KLK1 (values in nM), above 0.5 µM; at FXIa (values in nM), above 0.5 µM; on plasma kallikrein (PKa) [2], 0.213 nM.

Take `N=C(N)c1ccc(CNC(=O)c2cnn(Cc3ccc(CC4CC4)cc3)c2C(F)(F)F)cc1` [Compound 109]: the half-inhibitory concentration (IC50) on plasma kallikrein (PKa) [1] is 8.38 nM; at KLK1 (values given in µM), above 10 µM; at FXIa (values given in µM) it was above 10 µM; on plasma kallikrein (PKa) [2], 0.35 nM.

Take `Cc1cc(N)nc(C)c1CNC(=O)c1cn(Cc2ccc(Cn3ccccc3=O)cc2)nn1` [Compound 1, N-((6-amino-2,4-dimethylpyridin-3-yl)methyl)-1-(4-((2-oxopyridin-1(2H)-yl)methyl)benzyl)-1H-1,2,3-triazole-4-carboxamide]: the half-inhibitory concentration (IC50) against plasma kallikrein (PKa) [1] was 7.6 nM; at KLK1 (values given in µM) it was above 10 µM; against FXIa (values given in µM), above 10 µM; at plasma kallikrein (PKa) [2], 0.178 nM.

Consider `Nc1nccc2cc(CNC(=O)c3ncn(Cc4ccc(Cn5ccccc5=O)cc4)n3)ccc12` [Compound 76], for which the half-maximal inhibitory concentration (IC50) against plasma kallikrein (PKa) [1] was 12.5 nM; against KLK1 (values given in µM), above 10 µM; against FXIa (values given in µM), above 10 µM; on plasma kallikrein (PKa) [2] it was 0.96 nM.

As to `Nc1noc2ccc(CNC(=O)c3cnn(Cc4ccc(Cn5ccccc5=O)cc4)c3)cc12` [Compound 214], the IC50 on plasma kallikrein (PKa) [1] was 14.9 nM; against KLK1 (values given in µM), above 10 µM; against FXIa (values given in µM), above 10 µM; at plasma kallikrein (PKa) [2], 0.16 nM.
